One assay deals with T1, PonAAS1.
T1 construct: recombinant, fusion protein with trigger factor (pCOLD TF)
Put plainly: enzyme inhibition of 5-HTrp→serotonin conversion, dose-response. The format is biochemical, Pontania sp.

The target in another assay is T2, PonAAS2.
T2 construct: recombinant, fusion protein with trigger factor (pCOLD TF)
Description: enzyme inhibition of Trp→IAAld conversion, Lineweaver-Burk kinetics (IC50 […]). Format: biochemical, Pontania sp.

Molecules are shown by their SMILES.

A word on the IC50: it is the concentration at which inhibition is half-maximal. Read a high IC50 as weaker potency. As usually defined, the Ki is the dissociation constant of the complex between target and ligand, obtained from inhibition or displacement. High values mean lower affinity, low ones higher affinity.

`Oc1ccccc1-c1nc(-c2ccc3c(c2)CCO3)n[nH]1` [HTS10550, 2-[3-(2,3-dihydro-1-benzofuran-5-yl)-1H-1,2,4-triazol-5-yl]phenol] had an IC50 against PonAAS1 of around 20 µM. The inhibitory constant (Ki) at PonAAS2 amounted to 0.2 µM.

The values above are taken from article PMC10380194, “Conferring High IAA Productivity on Low-IAA-Producing Organisms with PonAAS2, an Aromatic Aldehyde Synthase of a Galling Sawfly, and Identification of Its Inhibitor” (Insects, 2023).
